Reference: patent publication US12171229B2, “Heteroaryl-triazole and heteroaryl-tetrazole compounds as pesticides” (BAYER AKTIENGESELLSCHAFT, priority 2018, dated 2024)

Assays:
Type in all cases: in vivo
Myzus persicae [1] = test: Myzus persicae oral test; settings: 120 h, 4 ppm, after 5 days
Procedure: Solvent: 100 parts by weight acetone
To produce a suitable preparation of active compound, 1 part by weight of active compound is mixed with the stated amount of solvent, and the concentrate is diluted with water to the desired concentration.
50 μl compound solution is filled in microtiter plates and 150 μl IPL41 insect medium (33%+15% sugar) is added to obtain a total volume of 200 μl per well. Afterwards the plates are sealed with parafilm through which a mixed population of the green peach aphid (Myzus persicae) can suck on the compound preparation.
(§1) After 5 days mortality in % is determined. 100% means all aphids have been killed and 0% means none of the aphids have been killed.

Myzus persicae [2] = test: Myzus persicae spray test; settings: foliar, 120 h, after 5 days, Chinese cabbage leaf disks
Procedure: Myzus persicae—Spray Test
To produce a suitable preparation of active compound, 1 part by weight of active compound is mixed with the stated amount of solvents and is diluted with water, containing an emulsifier concentration of 1000 ppm, to the desired concentration. Further test concentrations are prepared by dilution with emulsifier containing water.
Chinese cabbage (Brassica pekinensis) leaf disks infected with all instars of the green peach aphid (Myzus persicae), are sprayed with a preparation of the active ingredient of the desired concentration.
as §1

[3] = test system: Anopheles funestus strain FUMOZ-R; test: Anopheles funestus test (ANPHFU surface treatment & contact assay); settings: 24 hours after contact, read-out: efficacy (mortality); for mortality at 20 mg/m2: surface concentration 20 mg/m^2, exposure 30 minutes; for mortality at 4 mg/m2: surface concentration 4 mg/m^2, exposure 30 minutes
Procedure: Anopheles funestus Test (ANPHFU Surface Treatment & Contact Assay)
(§2) Solvent: Aceton+2000 ppm rapeseed oil methyl ester (RME)
(§3) In order to produce a sufficient, active ingredient containing solution it is necessary to solve the test compound in the solvent-mix (acetone at 2 mg/ml/RME 2000 ppm). This solution is pipetted onto a glazed tile and after evaporation of the acetone, adult mosquitoes of the species Anopheles funestus strain FUMOZ-R (Hunt et al., Med. Vet. Entomol. 2005 September; 19(3): 271-275) are placed onto the dried surface. The exposure time is 30 minutes.
(§4) Mortality in percent (%) is determined 24 hours after contact of the insects to the treated surface. 100% mortality means that all tested insects are dead, whereas 0% means that no insect died.

[4] = test system: Culex quinquefasciatus strain P00; test: Culex quinquefasciatus test (CULXFA surface treatment & contact assay); settings: 24 hours after contact, read-out: efficacy (mortality); for mortality at 20 mg/m2: surface concentration 20 mg/m^2, exposure 30 minutes
Procedure: Culex Quinquefasciatus Test (CULXFA Surface Treatment & Contact Assay)
as §2
as §3, with “Culex quinquefasciatus” for “Anopheles funestus”, “P00” for “FUMOZ-R (Hunt et al., Med. Vet. Entomol. 2005 September; 19(3): 271-275)”
as §4

Ctenocephalides felis [5] = test: Ctenocephalides felis oral test; settings: 48 h, 100 ppm in cattle blood, after 2 days, adult unfed cat fleas
Summary of the method: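 About 20 unfed adult cat fleas feed through parafilm on cattle blood dosed with compound from a DMSO stock. Blood chamber at 37° C, fleas at room temperature. Percent mortality scored after 2 days.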

Boophilus microplus = Boophilus microplus injection test; settings: Rhipicephalus microplus, 168 h; 20 μg/animal injected into the abdomen; adult engorged female ticks; egg deposition after 7 days; read-out: efficacy (infertile eggs)
Summary of the method: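 Five engorged adult female ticks received a 1 μl abdominal injection of compound in DMSO. They were then held in a climate chamber, with egg deposition checked after 7 days. Unclear eggs were kept until hatching at about 42 days, and efficacy was scored as the percentage of infertile eggs.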

Diabrotica balteata = Diabrotica balteata spray test; settings: Diabrotica balteata, in Triticum aestivum, 168 h, after 7 days, larvae on wheat seeds, read-out: efficacy (seedlings grown up); for pest or weed control at 80 µg/disc, 250 g/ha: 80 μg/well (=250 g/ha); for pest or weed control at 160 µg/disc, 500 g/ha: 160 μg/well (=500 g/ha)
Summary of the method: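 Germinated wheat seeds (5 per well, 1 day on agar) sprayed with compound diluted in water containing 1000 ppm emulsifier, then infested with 10–20 D. balteata larvae. Efficacy scored after 7 days: 100% = seedlings like untreated uninfested control, 0% = no seedlings grown.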

[6] = test system: Aedes aegypti strain MONHEIM; test: Aedes aegypti test (AEDSAE surface treatment & contact assay); settings: 24 hours after contact, read-out: efficacy (mortality); for mortality at 20 mg/m2: surface concentration 20 mg/m^2, exposure 30 minutes; for mortality at 4 mg/m2: surface concentration 4 mg/m^2, exposure 30 minutes
Procedure: Aedes Aegypti Test (AEDSAE Surface Treatment & Contact Assay)
as §2
as §3, with “Aedes aegypti” for “Anopheles funestus”, “MONHEIM” for “FUMOZ-R (Hunt et al., Med. Vet. Entomol. 2005 September; 19(3): 271-275)”
as §4

Spodoptera frugiperda = Spodoptera frugiperda spray test; settings: 168 h, after 7 days, larvae on maize leaf sections
Summary of the method: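 Maize leaf sections were sprayed with compound formulated in solvent and diluted in water containing 1000 ppm emulsifier, then infested with fall armyworm larvae after drying. Percent mortality was scored after 7 days (100% = all caterpillars dead, 0% = none).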

Nezara viridula = Nezara viridula spray test; settings: 96 h, after 4 days, larvae on barley plants
Summary of the method: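 Barley plants infested with Nezara viridula larvae were sprayed with compound diluted in water containing 1000 ppm emulsifier. Percent mortality was scored 4 days later, where 100% means all bugs killed and 0% none.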

Ctenocephalides felis [7] = test: Ctenocephalides felis in-vitro contact test, adult cat flea; settings: 5 μg/cm^2 (=500 g/ha), after 48 hours, adult cat fleas, read-out: efficacy (fleas dead or moribund)
Procedure: Ctenocephalides Felis—In-Vitro Contact Tests Adult Cat Flea 9 mg compound is solved in 1 ml acetone and diluted with acetone to the desired concentration. 250 μl of the test solution is filled in 25 ml glass test tubes and homogeneously distributed on the inner walls by rotation and tilting on a shaking device (2 h at 30 rpm). With a compound concentration of 900 ppm, an inner surface of 44.7 cm^2 and a homogeneous distribution, a dose of 5 μg/cm^2 is achieved. After the solvent has evaporated, each test tube is filled with 5-10 adult cat fleas (Ctenocephalides felis), closed with a perforated lid and incubated in a lying position at room temperature and relative humidity. After 48 hours efficacy is determined. The fleas are patted on the ground of the tubes and are incubated on a heating plate at 45-50° C. for at most 5 minutes. Immotile or uncoordinated moving fleas, which are not able to escape the heat by climbing upwards, are marked as dead or moribund. […] An efficacy of 100% means all fleas are dead or moribund; 0% means no fleas are dead or moribund.

Compound | mortality at 4 ppm (Myzus persicae [1]) | mortality at 100 g/ha (Myzus persicae [2]) | mortality at 20 mg/m2 [3] | mortality at 20 mg/m2 [4] | mortality at 100 ppm (Ctenocephalides felis [5]) | pest or weed control at 0.02 mg (Boophilus microplus) | pest or weed control at 80 µg/disc, 250 g/ha (Diabrotica balteata) | pest or weed control at 160 µg/disc, 500 g/ha (Diabrotica balteata) | mortality at 20 mg/m2 [6] | mortality at 100 g/ha (Spodoptera frugiperda) | mortality at 500 g/ha (Spodoptera frugiperda) | mortality at 4 mg/m2 [3] | mortality at 500 g/ha (Nezara viridula) | mortality at 4 mg/m2 [6] | mortality at 500 g/ha (Myzus persicae [2]) | mortality at 4 mg/m2 ([4]; surface concentration 4 mg/m^2, exposure 30 minutes) | pest or weed control at 5 µg/cm2 (Ctenocephalides felis [7]) | mortality at 100 g/ha (Nezara viridula)
C[C@H](NC(=O)c1cc(Cl)cc(C(F)(F)F)c1)c1ncnn1C1CCS(=O)(=O)C1 (single isomer, unassigned) [Example I-024] | 100% | 90% | 90 to 100% | 90 to 100% | 100% | 100% | 100% | 100% |  |  |  |  |  |  |  |  |  | 
C[C@H](NC(=O)c1cc(Cl)cc(C(F)(F)F)c1)c1ncnn1-c1ccc(SC(F)(F)F)cn1 [Example I-026, 3-chloro-5-(trifluoromethyl)-N-[(1S)-1-(1-{5-[(trifluoromethyl)sulfanyl]pyridin-2-yl}-1H-1,2,4-triazol-5-yl)ethyl]benzamide] |  |  | 90 to 100% | 90 to 100% | 100% | 100% | 100% | 100% | 90 to 100% | 100% | 100% | 85 to 100% |  |  |  |  |  | 
C[C@H](NC(=O)c1cc(Cl)cc(C(F)(F)F)c1)c1ncnn1-c1ccc(N)cn1 [Example I-030, N-{(1S)-1-[1-(5-aminopyridin-2-yl)-1H-1,2,4-triazol-5-yl]ethyl}-3-chloro-5-(trifluoromethyl)benzamide] | 100% | 90% | 90 to 100% | 90 to 100% | 100% | 100% | 100% | 80% | 90 to 100% | 83% | 100% |  | 100% |  |  |  |  | 
CC(=O)Nc1ccc(-n2ncnc2[C@H](C)NC(=O)c2cc(Cl)cc(C(F)(F)F)c2)nc1 [Example I-033] | 100% | 100% | 90 to 100% | 90 to 100% | 100% | 100% | 100% | 100% | 90 to 100% | 100% | 100% |  | 100% | 90 to 100% | 100% | 90 to 100% | 100% | 
CNC(=O)c1ccc(-n2ncnc2[C@H](C)NC(=O)c2cc(Cl)cc(C(F)(F)F)c2)nc1 [Example I-038, 6-(5-{(1S)-1-[3-chloro-5-(trifluoromethyl)benzamido]ethyl}-1H-1,2,4-triazol-1-yl)-N-methylnicotinamide] | 100% |  | 90 to 100% | 90 to 100% |  |  | 100% | 100% | 90 to 100% | 100% | 100% | 85 to 100% |  | 90 to 100% | 90% |  |  | 
C[C@H](NC(=O)c1cc(Cl)cc(C(F)(F)F)c1)c1ncnn1-c1ccc(C(=O)NC2CC2)cn1 [Example I-061] | 100% |  |  |  | 100% | 100% | 100% | 100% |  | 100% | 100% |  | 100% |  |  |  | 100% | 
COc1cc(Cl)cc(C(=O)N[C@@H](C)c2ncnn2-c2ccc(C#N)cn2)c1 [Example I-079] |  |  |  |  | 100% |  | 100% |  |  |  | 100% |  | 90% |  |  |  | 90% | 90%
C[C@H](NC(=O)c1cc(Br)cc(C(F)(F)F)c1)c1ncnn1-c1ccc(C#N)cn1 [Example I-081] | 100% |  |  |  |  |  | 100% | 100% |  | 100% | 100% |  | 100% |  |  |  | 90% | 90%
C[C@H](NC(=O)c1cc(Cl)cc(C(F)(F)F)c1)c1ncnn1-c1ncc(C(F)(F)F)s1 [Example I-085] |  |  |  |  | 100% |  | 100% | 100% |  | 100% | 100% |  | 100% |  |  |  | 100% | 
C[C@H](NC(=O)c1cc(C(F)(F)F)cc(C(F)(F)F)c1)c1ncnn1-c1ncc(Cl)cc1F [Example I-088] |  |  |  |  | 100% |  | 100% | 100% |  | 100% | 100% |  | 100% |  | 90% |  | 100% | 90%
C[C@H](NC(=O)c1cc(Cl)cc(OC(F)(F)F)c1)c1ncnn1-c1ccc([N+](=O)[O-])cn1 [Example I-089] | 90% | 90% |  |  | 100% |  | 100% | 100% |  | 100% | 100% |  | 100% |  | 90% |  | 100% | 90%
